Columns and labels:
[1] = target: T1, B. anthracis lumazine synthase (BaLS) (Bacillus anthracis, UniProt Q81MB5); experiment: biochemical; conditions: for Mechanism: pH 7
[2] = target: T1, B. anthracis lumazine synthase (BaLS); experiment: biochemical; type: binding; conditions: for Binding enthalpy ΔH / Free energy of binding ΔG / No. of sites n / TΔS: pH 7
[3] = target: LS from M. tuberculosis (MtLS); conditions: read-out: Dissociation constant Kd; cited from earlier work
[4] = target: C. albicans LS (CaLS); conditions: read-out: Dissociation constant Kd; cited from earlier work

T1 sequence (Q81MB5 whole entry, looked up): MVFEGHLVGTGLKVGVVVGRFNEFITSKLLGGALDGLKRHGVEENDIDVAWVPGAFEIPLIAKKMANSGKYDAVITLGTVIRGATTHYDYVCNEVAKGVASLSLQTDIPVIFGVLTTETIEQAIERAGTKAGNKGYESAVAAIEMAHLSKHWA

Row | SMILES | Ki [1] [nM] | increase of the Ki value in comparison to JC33 [1] | Mechanism [1] | Kis ([1]; pH 7.0) [µM] | Ks ([1]; pH 7.0) [µM] | kcat ([1]; pH 7.0) [min⁻¹] | k′cat ([1]; pH 7.0) [min⁻¹] | Kd [2] [nM] | Binding enthalpy ΔH [2] [kcal/mol] | Free energy of binding ΔG [2] [kcal/mol] | No. of sites n [2] | TΔS [2] [kcal/mol] | Kd [3] [nM] | Kd [4] [nM]
1 | O=c1[nH]c(Cl)c(CCCCCP(=O)(O)O)c(=O)[nH]1 [JC72, 5-(6-chloro-2,4-dioxo-1,2,3,4-tetrahydropyrimidine-5-yl)-n-pentyl 1-phosphonate] | 430 | approximately 20 fold | Partial | 9.5 ± 3.5 | 8.5 ± 0.5 | 0.60 ± 0.01 | 0.28 ± 0.09 | 3940 ± 10 | -5.29 ± 0.8 | -7.49 ± 0.01 | 0.98 ± 0.12 | 2.20 ± 0.79 | – | –
2 | O=c1[nH]c(Cl)c(CCCCOP(=O)(O)O)c(=O)[nH]1 [JC33, 4-(6-Chloro-2,4-dioxo-1,2,3,4-tetrahydropyrimidine-5-yl)-n-butyl 1-phosphate] | 23 | – | Competitive | – | 8.0 ± 0.5 | 0.60 ± 0.01 | – | 1750 ± 40 | -7.50 ± 0.07 | -7.98 ± 0.02 | 0.98 ± 0.04 | 0.47 ± 0.07 | 720 ± 20 | 150 ± 40

From PMC2935281 (Acta Crystallographica Section D: Biological Crystallography, 2010)
